Non-standard residues stand in square brackets, D forms with d. Residues, ends and D or L forms follow the SMILES beside them.
Legend:
[1] = target: T1, mouse Foxm1 (Mus musculus, UniProt O08696); assay: Biotin-peptide Pulldown in 4T1 cell lysates; type: binding; details: biotin-labeled, 20 µM, 4T1 cell lysates (500 µg); Fig. S18B
T1 construct: endogenous in cells; host or cells: 4T1 mouse breast cancer cell lysate

[2] = target: FOXM1/DNA complex (Homo sapiens, UniProt Q08050); assay: Electrophoretic Mobility Shift Assays (EMSAs); type: biochemical; details: recombinant FOXM1 2 µM, FAM-labeled DNA probe 50 nM, M1-21 0.5, 1, 2 µM
Description: A FAM-labeled DNA probe (50 nM) was mixed with recombinant FOXM1 protein (2 µM) for EMSAs. […] The specificity of FOXM1/DNA complex formation was shown using 100× unlabeled DNA probes (cold probes, 5000 nM). Reactions were resolved in 4% native polyacrylamide gel electrophoresis in 0.5×TBE and visualized with a Kodak 4000 MM Imaging System (EX: 465 nm, EM: 535 nm). B The docking of P22 to FOXM1 DNA Binding domain (DBD, PDB ID 3G73) was created by Rosetta FlexPepDock and PyMOL. Left, the interface of peptide-protein interaction, peptide was shown in cyan and FOXM1 DBD was shown according to its electrostatic potential. Right, hydrogen bonds were formed by residues (blue from peptide and black from FOXM1 DBD) at the interface of peptide and protein interaction.
The double-strand DNA (dsDNA) probe was synthesized by Sangon Co., Ltd. (Shanghai, China). Protein (2 µM) was incubated with FAM-labeled dsDNA probe (50 nM) in binding buffer (20 mM Tris-Cl, 50 mM KCl, 0.5 mM EDTA, 0.2 mM DTT, 10% glycerol, pH 7.6) for 30 min on ice. […] The reactions were resolved in 4% native polyacrylamide gel electrophoresis in 0.5×TBE and visualized with Kodak 4000 MM Imaging System (Kodak, USA) (EX: 465 nm, EM: 535 nm for FAM). Sequence information is available in Supplementary Table S3.

[3] = In vivo imaging of distribution of ICG-labeled peptide; set-up: species or system mouse; details: ICG-labeled M1-21, 30 mg/kg tail vein, wild-type ICR/JCL mice; IVIS imaging 0.5-24 h
[4] = H&E staining of organs after repeated injection; type: in vivo, mouse; details: ICR/JCL mice, 30 mg/kg intraperitoneal once every two days for three weeks
Description: One week later, the animals’ different organs were harvested and subjected to tissue sectioning and H&E staining. Photos were taken by inverted microscope (400×, Nikon TE2000). […] The mice’s diet and activity were observed continuously for 14 days. […] Water and PBS were used as hemolysis positive and negative controls, respectively. The absorbance of the samples was measured at 540 nm and used to calculate the Hemolysis rate % = [(OD Sample - OD Negative) / (OD Positive - OD Negative)] × 100%. E Immunogenicity analysis of M1-21. […] Blood samples were collected from mice at different time points (Week 2 to Week 8) and the absorption of anti-M1-21 antibody in serum (1:1000 dilution) was measured by ELISA. HRP-conjugated anti-mouse IgG was used as an ELISA secondary antibody.

[5] = tested on: MCF-10A cells; details: 0-50 µM, 72 h, trypan blue, Fig. S11
Description: 72 h Later, trypan blue staining (0.4%) was added to each well and incubated for another 3 min and the cells were fixed at 4% paraformaldehyde for imaging. The number of viable cells was counted by ImageJ software to calculate the cell viability of each well. The correspondence between cell viability and peptide concentration was plotted by GraphPad software.
After processing time, viable cells were counted by trypan blue staining (0.4% w/v). 3 Minutes later, cells incubated with the staining solution were washed and fixed at 4% paraformaldehyde for imaging. The number of viable cells was counted by ImageJ software to calculate the cell viability of each well. The relative cell viability versus the concentration of peptide was plotted and IC50 (µM) was calculated by GraphPad software.

[6] = tested on: MDA-MB-231 cells; details: Biotin-M1-21 20 µM, 4 h, cytosol and nuclear protein samples, Western blotting
[7] = tested on: MDA-MB-231 cells; assay: Wound Healing assay; details: MDA-MB-231, 10 µM for 36 h; versus M1-21mut; n = 3
[8] = target: FOXM1:LIN9 or FOXM1: B-MYB (Homo sapiens, UniProt Q08050); assay: Co-IP in 231-Flag-FOXM1-Ind cells; details: 10, 20 µM for 6 h, dose-dependent
Description: (§1) Cell lysates (500 µg) were extracted and incubated with anti-Flag magnetic beads to pull down Flag-FOXM1/proteins complexes. […] 5% of cell lysates (25 µg) were used as input controls.
(§2) For Co-IP, IP lysate buffer was used to extract total protein. 500 µg protein lysates were incubated with 20 µl of Anti-Flag Magnetic Beads (Bimake, USA) for Flag-FOXM1 proteins at 4 °C for 3 h. The beads were washed 5 times with pre-cooled 1×PBS and subjected to Western blotting.

[9] = target: interaction between FOXM1 and β-catenin (Homo sapiens, UniProt Q08050); assay: Co-IP in 231-Flag-FOXM1-Ind cells; details: 10, 20 µM for 6 h
Description: as §1, §2

[10] = tested on: MDA-MB-231 engrafted tumors; assay: MDA-MB-231 tumor-engrafted BALB/c nude mice
Description: F BALB/c nude mice (female, 6 weeks old) were subcutaneously injected with MDA-MB-231 cells (1 × 10^6 cells/mouse). […] The volume of engrafted tumors was measured every two days and growth curves were obtained at the end of the experiment. The tumor volume (V) was calculated by: V = length × diameter^2 × 1/2. G Images and weight of engrafted tumors on Day 19. […] Number of repetitions = 3.
BALB/c nude mice and BALB/c wild-type mice (female, 6 weeks old) were purchased from Hunan SJA Laboratory Animal Co., Ltd. (Changsha, China). […] BALB/c nude mice were injected subcutaneously with MDA-MB-231 cells (1 × 10^6 cell/mouse). […] Tumor size was measured every two days. The tumor volume (V) was calculated by: V = length × diameter^2 × 1/2. Cancer tissue from the animals was harvested for imaging and weighing on Day 19.
B The lysates of the harvested cancer tissues were obtained and the protein levels of FOXM1, CDC25B, and PLK1 were detected by Western blotting. β-actin was used as a loading control. ImageJ software was used to calculate the gray value of the bands, and each point represented the value of protein content in the samples.

[11] = tested on: − 1.4 kb promoter of PLK1; assay: Dual luciferase reporter, CHR-containing promoter; details: HEK-293T, PLK1 pro(-1.4 kb)-Luc with pCMV-FOXM1; 5, 10, 20 µM for 24 h; n = 3
Description: (§3) C Reporter plasmids containing the luciferase gene downstream of the 6×FOXM1 binding sequence (6×FOXM1 Binding-Luc, 0.4 µg) or the − 1.8 kb CDC25B promoter (CDC25B pro(-1.8 kb)-Luc, 0.4 µg) were co-transfected with pCMV-FOXM1 (0.6 µg) into HEK-293T cells, plus pRL-CMV plasmid (20 ng/well) as a loading control. […] Then cell lysates were prepared and used for the measurement of dual Luciferase activities. Number of repetitions = 3. […] F Reporter plasmids containing the luciferase gene downstream of the − 1.4 kb PLK1 promoter (PLK1 pro(-1.4 kb)-Luc, 0.4 µg) were co-transfected with pCMV-FOXM1 (0.6 µg) into HEK-293T cells, plus pRL-CMV plasmid (20 ng/well) as loading control. […] Then cell lysates were prepared and used to measure dual Luciferase activity. Number of repetitions = 3.
(§4) HEK-293T cells (1×10^5 cells/well in 12-well plates) were transfected (EZ Trans, LIFE iLAB BIO, China) with certain luciferase reporter vectors (0.4 µg) and expression vector (0.6 µg) (or control plasmid (0.6 µg)). pRL-CMV plasmid (20 ng) was used as loading control for each transfection. 8 Hours after transfection, the medium was replaced and inhibitory peptides (or control peptide) with different concentrations were added. Finally, luciferase activity was measured 48 hours later with the Dual luciferase Assay system (Promega, USA) according to the manufacturer's instructions.

[12] = tested on: TCF/LEF-binding promoter; assay: Dual luciferase reporter, TCF/LEF-binding promoter; details: HEK-293T; 5, 10, 20 µM for 24 h; n = 3
Description: as §3, §4

[13] = tested on: β-catenin; assay: β-catenin levels in cytosol and nuclear protein samples; details: MDA-MB-231, 20 µM for 6 h; Western blotting
Description: The recombinant proteins in the samples were separated by PAGE-gel and detected with Ponceau S staining solution (marked by *). 10% of recombinant proteins (10 µg) were used as input controls. […] Mean binding affinity values (KD (µM)) were shown on the panel. Experiments were repeated three times with similar results. C Reporter plasmids containing the luciferase gene downstream of the 6×FOXM1 binding sequence (6×FOXM1 Binding-Luc, 0.4 µg) or the − 1.8 kb CDC25B promoter (CDC25B pro(-1.8 kb)-Luc, 0.4 µg) were co-transfected with pCMV-FOXM1 (0.6 µg) into HEK-293T cells, plus pRL-CMV plasmid (20 ng/well) as a loading control. […] The levels of Flag-FOXM1 and PLK1 proteins in the samples were detected by Western blotting. […] E Flag-FOXM1, LIN9, and B-MYB protein levels in panel D samples were detected by Western blotting. […] The mRNA levels of PLK1, CDC25B, and Vimentin (VIM) were measured by qPCR. […] The protein levels of PLK1, CDC25B, and Vimentin (VIM) were measured by Western blotting. β-actin was used as a loading control.
The cells were washed with ice-cold 1×PBS and lysed on ice with IP lysate buffer containing 20 mM Tris/HCl pH 7.6, 150 mM NaCl, 1% NP-40, 0.1 mM EDTA, and protease inhibitors. […] After centrifugation, the protein concentration in the supernatant was measured with a BCA protein reagent (Thermo Fisher Scientific, USA). […]

[14] = tested on: 4T1-Luc-GFP cells; assay: 4T1-Luc-GFP metastasis tracing in wild-type BALB/c mice; details: 15 or 30 mg/kg intraperitoneal every two days
Description: D Wild-type BALB/c mice were tail-vein injected with 4T1-Luc-GFP cells (1 × 10^6 cells/mouse). […] E Different organs of representative mice were harvested on Day 21 and fluorescent imaging was performed as described above. F The D panel mouse survival statistic curves were obtained by the Mantel-Cox estimator with log rank test
Wild-type BALB/c mice were injected with 4T1-Luc-GFP cells (1 × 10^6 cells/mouse) via the tail vein. […] Different organs of representative mice were harvested on Day 21 for luminaire imaging. When the mice lost mobility and had difficulty eating, the mice were considered near death and terminated according to animal welfare. The survival statistic curve was obtained by the Mantel-Cox estimator with the log rank test.

[15] = target: truncated FOXM1 recombinant proteins tagged by GST (Homo sapiens, UniProt Q08050); assay: Pulldown of GST-tagged truncated FOXM1 recombinant proteins; details: Biotin-M1-21 20 µM, recombinant protein 100 µg; Ponceau S
Target sequence in this assay (Q08050 221-353 isoform Q08050-2): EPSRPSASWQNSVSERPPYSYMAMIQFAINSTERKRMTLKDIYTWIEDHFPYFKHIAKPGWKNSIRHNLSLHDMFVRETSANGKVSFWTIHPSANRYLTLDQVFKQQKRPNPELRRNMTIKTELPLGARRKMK
Description: (§5) The recombinant proteins in the samples were separated by PAGE-gel and detected with Ponceau S staining solution (marked by *). 10% of recombinant proteins (10 µg) were used as input controls. […] Experiments were repeated three times with similar results. C Reporter plasmids containing the luciferase gene downstream of the 6×FOXM1 binding sequence (6×FOXM1 Binding-Luc, 0.4 µg) or the − 1.8 kb CDC25B promoter (CDC25B pro(-1.8 kb)-Luc, 0.4 µg) were co-transfected with pCMV-FOXM1 (0.6 µg) into HEK-293T cells, plus pRL-CMV plasmid (20 ng/well) as a loading control. […] Then cell lysates were prepared and used for the measurement of dual Luciferase activities. Number of repetitions = 3. […] Cell lysates (500 µg) were extracted and incubated with anti-Flag magnetic beads to pull down Flag-FOXM1/proteins complexes. The levels of Flag-FOXM1 and PLK1 proteins in the samples were detected by Western blotting. 5% of cell lysates (25 µg) were used as input controls. E Flag-FOXM1, LIN9, and B-MYB protein levels in panel D samples were detected by Western blotting. F Reporter plasmids containing the luciferase gene downstream of the − 1.4 kb PLK1 promoter (PLK1 pro(-1.4 kb)-Luc, 0.4 µg) were co-transfected with pCMV-FOXM1 (0.6 µg) into HEK-293T cells, plus pRL-CMV plasmid (20 ng/well) as loading control. […] Then cell lysates were prepared and used to measure dual Luciferase activity. Number of repetitions = 3. […] I TCF/LEF Binging-Luc reporter plasmid (0.4 µg) was co-transfected with pCMV-FOXM1 (0.6 µg) into HEK-293T cells, plus pRL-CMV plasmid (20 ng/well) as loading control. […] Then cell lysates were prepared and used to measure dual Luciferase activity. Number of repetitions = 3. […] The mRNA levels of PLK1, CDC25B, and Vimentin (VIM) were measured by qPCR. GAPDH was used as a loading control. […] The protein levels of PLK1, CDC25B, and Vimentin (VIM) were measured by Western blotting. β-actin was used as a loading control.
(§6) The magnetic beads were rinsed 5 times with pre-cooled 1×PBS, then the protein loading buffer was added, and the proteins were denatured at 95°C for 10 minutes. […]

[16] = target: truncated FOXM1 recombinant proteins tagged by GST (Homo sapiens, UniProt Q08050); assay: as above; details: Biotin-M1-21 20 µM, recombinant protein 100 µg; Ponceau S; remark: listed apart in the source
Target sequence in this assay (Q08050 703-763): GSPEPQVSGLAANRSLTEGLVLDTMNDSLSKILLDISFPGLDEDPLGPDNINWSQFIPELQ
Description: as §5, §6

[17] = target: truncated FOXM1 recombinant proteins tagged by GST (Homo sapiens, UniProt Q08050); assay: as above; details: Biotin-M1-21 20 µM, recombinant protein 100 µg; Ponceau S; remark: listed apart in the source
Target sequence in this assay (Q08050 1-138): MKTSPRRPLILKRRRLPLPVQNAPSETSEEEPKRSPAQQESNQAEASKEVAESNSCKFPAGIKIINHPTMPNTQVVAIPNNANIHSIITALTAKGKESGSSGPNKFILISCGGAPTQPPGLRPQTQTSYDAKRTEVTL
Description: as §5, §6

T1 sequence (O08696 whole entry): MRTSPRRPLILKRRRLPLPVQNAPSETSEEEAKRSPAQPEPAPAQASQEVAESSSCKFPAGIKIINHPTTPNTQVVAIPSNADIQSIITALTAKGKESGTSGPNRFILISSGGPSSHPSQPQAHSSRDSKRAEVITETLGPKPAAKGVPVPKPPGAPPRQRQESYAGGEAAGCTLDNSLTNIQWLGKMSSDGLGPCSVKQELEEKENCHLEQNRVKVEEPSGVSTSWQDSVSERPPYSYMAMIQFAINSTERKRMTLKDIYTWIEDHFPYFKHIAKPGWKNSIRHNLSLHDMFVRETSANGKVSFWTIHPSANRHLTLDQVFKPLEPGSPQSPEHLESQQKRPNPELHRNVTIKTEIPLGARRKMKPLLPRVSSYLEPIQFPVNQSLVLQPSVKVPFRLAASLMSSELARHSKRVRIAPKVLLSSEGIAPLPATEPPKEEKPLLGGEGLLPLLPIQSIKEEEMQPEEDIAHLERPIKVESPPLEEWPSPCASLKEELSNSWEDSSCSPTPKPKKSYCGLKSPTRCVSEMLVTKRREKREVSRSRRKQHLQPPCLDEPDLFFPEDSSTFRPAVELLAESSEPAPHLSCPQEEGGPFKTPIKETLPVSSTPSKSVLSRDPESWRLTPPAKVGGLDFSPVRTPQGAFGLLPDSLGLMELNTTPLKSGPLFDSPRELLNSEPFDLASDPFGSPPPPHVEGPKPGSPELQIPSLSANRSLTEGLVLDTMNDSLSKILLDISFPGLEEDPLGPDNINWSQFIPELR
FOXM1:LIN9 or FOXM1: B-MYB, sequence (Q08050 1-748 isoform Q08050-2): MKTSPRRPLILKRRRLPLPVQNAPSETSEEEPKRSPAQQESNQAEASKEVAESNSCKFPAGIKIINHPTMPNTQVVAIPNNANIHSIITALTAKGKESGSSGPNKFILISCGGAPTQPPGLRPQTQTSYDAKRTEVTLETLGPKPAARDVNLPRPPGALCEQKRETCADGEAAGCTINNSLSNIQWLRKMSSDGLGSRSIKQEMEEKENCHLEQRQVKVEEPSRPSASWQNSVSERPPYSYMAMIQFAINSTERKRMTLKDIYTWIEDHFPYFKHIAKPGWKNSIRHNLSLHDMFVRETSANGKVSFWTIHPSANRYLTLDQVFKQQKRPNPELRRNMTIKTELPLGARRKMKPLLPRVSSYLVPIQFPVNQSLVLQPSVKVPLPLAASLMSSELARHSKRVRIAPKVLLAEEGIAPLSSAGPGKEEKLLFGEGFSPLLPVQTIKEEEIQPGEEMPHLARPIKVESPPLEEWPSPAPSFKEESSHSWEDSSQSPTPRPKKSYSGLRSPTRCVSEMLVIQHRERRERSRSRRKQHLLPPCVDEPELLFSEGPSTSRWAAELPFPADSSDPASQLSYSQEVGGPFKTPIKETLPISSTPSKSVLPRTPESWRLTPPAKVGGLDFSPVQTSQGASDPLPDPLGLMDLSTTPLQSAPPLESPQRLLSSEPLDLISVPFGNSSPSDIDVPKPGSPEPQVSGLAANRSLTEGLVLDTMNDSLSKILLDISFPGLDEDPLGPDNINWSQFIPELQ
interaction between FOXM1 and β-catenin, sequence (Q08050 1-748 isoform Q08050-2): as above
FOXM1/DNA complex, sequence (Q08050 1-748 isoform Q08050-2, one chain of several): as the sequence (Q08050 1-748 isoform Q08050-2) above

CC[C@@H](C)[C@@H](NC(=O)[C@@H](CC(C)C)NC(=O)[C@H](NC(=O)[C@@H](CO)NC(=O)[C@@H](CS)NC(=O)CNC(=O)CNC(=O)[C@@H](C)NC(=O)[C@H]1CCCN1C(=O)[C@H](NC(=O)[C@@H](CCC(N)=O)NC(=O)[C@H]1CCCN1C(=O)[C@H]1CCCN1C(=O)CNC(=O)[C@@H](CC(C)C)NC(=O)[C@@H](CCCNC(=N)N)NC(=O)[C@H]1CCCN1C(=O)[C@@H](CCC(N)=O)NC(=O)[C@H](NC(=O)[C@H](N)CCC(N)=O)[C@H](C)O)[C@H](C)O)[C@H](C)CC)C(=O)N[C@H](Cc1ccccc1)C(=O)N[C@H](CCCNC(=N)N)C(=O)N[C@H](CCCNC(=N)N)C(=O)N[C@H](CCCNC(=N)N)C(=O)N[C@H](CCC(N)=O)C(=O)N[C@H](CCCNC(=N)N)C(=O)N[C@H](CCCNC(=N)N)C(=O)N[C@H](CCCCN)C(=O)N[C@H](CCCCN)C(=O)N[C@H](CCCNC(=N)N)C(=O)NCC(=O)O [M1-21] (H-[dQ][dT][dQ][dP][dR][dL]G[dP][dP][dQ][dT][dP][dA]GG[dC][dS][dI][dL][dI][dF][dR][dR][dR][dQ][dR][dR][dK][dK][dR]G-OH; N-terminus and C-terminus assumed)
binding to endogenous mouse Foxm1 in Pulldown [1]: could bind | DNA binding ability of FOXM1 (EMSA) [2]: did not disturb | period of stay in the body (stability in mice) [3]: > 15 h | morphological lesions in heart, liver, spleen, lung, and kidney (H&E) [4]: no obvious morphological lesions | inhibition of normal breast epithelial cells, in words [5]: did not inhibit | distribution after entering cells [6]: distributed in cytoplasm and nucleus | cell migration [7]: inhibited | interaction of FOXM1:LIN9 or FOXM1: B-MYB (Co-IP) [8]: disrupted the interaction | interaction between FOXM1 and β-catenin (Co-IP) [9]: disrupted the interaction | size and weight of engrafted tumors at the end of the experiment ([10]; BALB/c nude mice, 30 mg/kg intraperitoneal once every two days, Day 19, n = 6): significantly decreased | growth of engrafted tumors (tumor volume) ([10]; BALB/c nude mice, 30 mg/kg intraperitoneal once every two days, n = 6, versus PBS): growth inhibition of engrafted tumors | levels of FOXM1, CDC25B and PLK1 in tumor samples ([10]; Western blotting of harvested cancer tissues, Fig. S12B): decreased levels | FOXM1-MuvB-mediated stimulation on the CHR-containing promoter (luciferase) [11]: abolished FOXM1-MuvB-mediated stimulation | β-catenin-mediated stimulation on the TCF/LEF-binding promoter (luciferase) [12]: abolished β-catenin-mediated stimulation | β-catenin levels in cytoplasm and nucleus [13]: elevated levels of β-catenin in the cytoplasm and declined levels of β-catenin in the nucleus | survival time of the animals ([14]; Mantel-Cox, log rank test): significantly prolonged | metastasis of 4T1-Luc-GFP cells (in vivo luciferase imaging) ([14]; n = 6 per group, Day 1, 7, 17, organs Day 21): prevented metastasis | binding to GST-FOXM1_221-353 in Pulldown [15]: bound | binding to GST-FOXM1_688-748 in Pulldown [16]: bound | binding to GST-FOXM1_1-138 in Pulldown [17]: bound

Reference: paper PMC10286459 (Cell & Bioscience, 2023)
